Data on 52 molecules can be found in PubChem BioAssay AID1996.

Values after ≈ are worked out from the molar mass of the structure shown.

For this data set the following is noted: buffer; pH 7.4; 200.0 µM.
For `COc1ccc(OC)c(C(=O)CN2C(=O)C(=O)N(C3CCCC3)C2=O)c1`, the solubility (kinetic) came to 41.3 µg/mL (≈ 115 µM). In the case of `Cc1ccc2c(c1)c1nc3ccccc3nc1n2C` it was less than 0.2 µg/mL; in that of `Cc1cccn2c(=O)nc(SCC(=O)NC3CCCCC3)nc12`, more than 49.9 µg/mL.

`Br.CCc1ccc(C2=CSC3=NCCN23)cc1` displayed a solubility (kinetic) of more than 46.7 µg/mL.

On to `Cc1ccc(/C=C/C(=O)NCc2cccs2)c(C)c1`, for which the solubility (kinetic) is less than 0.6 µg/mL. In the case of `O=S(=O)(Nc1ccncc1)c1ccc(Cl)c(Cl)c1` it was 3.7 µg/mL (≈ 12.2 µM); in that of `c1ccc(CN2CCN(c3nc4ccccc4s3)CC2)cc1`, 1 µg/mL (≈ 3.23 µM); in that of `CCN(CC)CC(=O)NCC1(c2ccccc2)CCCC1`, 40.9 µg/mL (≈ 142 µM). Turning to `CN(NC1OC(=O)c2ccccc21)c1ccccc1[N+](=O)[O-]` (configuration not stated), the solubility (kinetic) is more than 44.9 µg/mL. Under `CS(=O)(=O)c1ccc(NCC2CCCO2)c([N+](=O)[O-])c1` (configuration not stated) stands more than 45 µg/mL; under `CN(CCC(=O)c1ccccc1)CCC(=O)c1ccccc1`, 42.3 µg/mL (≈ 143 µM). Under `Cl.Oc1ccccc1C1NCc2ccccc2-n2cccc21` (configuration not stated) stands 32.2 µg/mL; under `CCOc1ccc(NC(=O)Cc2c(C(=O)O)n(C)c3ccccc23)cc1`, more than 52.9 µg/mL; under `O=C(CNC(=O)c1ccco1)Nc1ccc(F)cc1`, 37 µg/mL (≈ 141 µM). Under `Cc1cc(C(C)(C)C)ccc1NC(=O)CC(C)(C)CC(=O)O` stands more than 45.8 µg/mL; under `O=C(O)c1ccccc1SCc1csc(-c2ccccc2)n1`, more than 49.1 µg/mL; under `Cc1cccc(C)c1NC(=O)N1CC=CCC1`, more than 34.5 µg/mL.

Turning to `CC(=O)c1cccc(NCC(=O)c2ccc(C)c([N+](=O)[O-])c2)c1`, the solubility (kinetic) was 13.7 µg/mL (≈ 43.9 µM). Under `O=C1OC(Nc2nc(-c3ccc(F)cc3)cs2)c2ccccc21` (configuration not stated) stands 1.9 µg/mL (≈ 5.82 µM). `Cc1ccc(NC(=O)CNCc2ccccc2)c(Br)c1` gave a solubility (kinetic) of 34.3 µg/mL (≈ 103 µM). Under `O=[N+]([O-])c1ccc(CSc2nc3ncc(Br)cc3[nH]2)cc1` stands 1.3 µg/mL (≈ 3.56 µM). The molecule `Cc1ccc(S(=O)(=O)N2CCC(C(=O)NC3CC3)CC2)cc1` registered a kinetic solubility of more than 48.4 µg/mL. Molecule `CSc1ccccc1NC(=O)CN(C)C(C)C(=O)NCc1ccc2c(c1)OCO2` (configuration not stated) gave a solubility (kinetic) of 16 µg/mL (≈ 38.5 µM). `O=C(/C=C\N1CCOCC1)c1ccc(Br)cc1` gave a kinetic solubility of more than 44.4 µg/mL. In the case of `CC(CN1CCCCC1)OC(=O)c1ccc2c(c1)OCCO2.Cl` (configuration not stated) it was more than 51.3 µg/mL; in that of `Cc1ccc(S(=O)(=O)CCN2C=CC(C(F)(F)F)=NCC2)cc1`, 51.4 µg/mL (≈ 148 µM); in that of `O=C(CNC(=O)Cc1ccccc1)NCc1cccs1`, 41.9 µg/mL (≈ 145 µM). In the case of `Cc1cc(NS(C)(=O)=O)c(=O)n(Cc2cccc(F)c2)c1` it was more than 46.6 µg/mL. As for `CN(C)c1cc(-c2ccc(C#N)cc2)oc(=O)c1Cl`, the solubility (kinetic) was 2.7 µg/mL (≈ 9.83 µM). In the case of `Cc1c(N2C(=O)CSC2c2ccco2)c(=O)n(-c2ccccc2)n1C` (configuration not stated) it was more than 53.3 µg/mL; in that of `CCCC(=O)NC(=S)Nc1cccc(Cl)c1N1CCCC1`, 0.5 µg/mL (≈ 1.53 µM); in that of `CC[C@H](C)[C@H](NC(N)=O)C(=O)NCCc1ccc(OC)cc1`, more than 46.1 µg/mL. Take `O=C(COC(=O)c1c(Cl)ccc(Cl)c1Cl)NCC1CCCO1` (configuration not stated): the solubility (kinetic) is more than 55 µg/mL. In the case of `Clc1ccc(-c2cc(CN3CCCCC3)no2)cc1Cl` it was 0.4 µg/mL (≈ 1.29 µM); in that of `O=C(CC1(CC(=O)N2CCOCC2)CCCC1)Nc1ccc(F)cc1`, more than 52.3 µg/mL.

For the molecule `O=C(c1cc(C(=O)N2CCCC2)cc([N+](=O)[O-])c1)N1CCCC1`, the solubility (kinetic) was more than 47.6 µg/mL. `O=C(O)C(=O)O.OC1(c2ccccc2)CCNC2CCCCC21` (configuration not stated) showed a solubility (kinetic) of more than 48.2 µg/mL. Under `CC1CC(C)CN(C(=O)COC(=O)c2cc3ccccc3oc2=O)C1` (configuration not stated) stands more than 51.5 µg/mL; under `CCC(=O)NC(c1ccccc1)c1c(O)ccc2ccccc12` (configuration not stated), 0.9 µg/mL (≈ 2.95 µM); under `CC(=O)c1ccc(NC(=O)[C@@H]2CCCN2C(=O)OC(C)(C)C)cc1`, more than 49.9 µg/mL. In the case of `Cc1ccc(N2C(=O)CC(N3CCc4ccccc43)C2=O)cc1Cl` (configuration not stated) it was less than 0.4 µg/mL; in that of `Cn1c2c(c(=O)c3ccccc31)CCCC2`, more than 32 µg/mL. In the case of `O=C(NCc1ccccc1F)C12CC3CC(CC(C3)C1)C2` it was 1 µg/mL (≈ 3.48 µM); in that of `O=C(Cc1c(F)cccc1Cl)OCC(=O)c1ccc[nH]1`, 26.1 µg/mL (≈ 88.3 µM); in that of `CC(=O)Nc1ccc(NS(=O)(=O)c2cc([N+](=O)[O-])ccc2C)cc1`, 2.6 µg/mL (≈ 7.44 µM).

The molecule `CN(C(=O)COC(=O)c1cccnc1Cl)C1CCCCC1` came in with a solubility (kinetic) of more than 46.6 µg/mL. Under `O=C1CN(C(=S)Nc2ccccc2Cl)CCN1` stands more than 40.5 µg/mL; under `CC1(C)C(c2cccs2)=[N+]([O-])C2(CCCCC2=O)N1O` (configuration not stated), 41.4 µg/mL (≈ 141 µM). Under `COc1ccc(N2CCCC2=N)c(OC)c1.Cl` stands more than 38.5 µg/mL; under `O=C(NC(=S)NCc1ccccc1)c1cccc([N+](=O)[O-])c1`, 2.2 µg/mL (≈ 6.98 µM). In the case of `COCCCNC(=O)C1c2ccccc2Oc2ccccc21` it was 15.2 µg/mL (≈ 51.1 µM); in that of `CCOCCCn1c(SCC(=O)N2CCOCC2)nc2ccccc2c1=O`, more than 58.7 µg/mL.

Usually solubility (kinetic) stands for solubility judged after dilution from a stock solution rather than from solid.
